Results from US20200131156A1, “ARYLSULFONYLPYROLECARBOXAMIDE DERIVATIVES AS Kv3 POTASSIUM CHANNEL ACTIVATORS” (H. Lundbeck A/S, priority 2018, published 2020).

Target: T1, hKv3.1b (Homo sapiens, UniProt P48547)
T1 construct: expressed in transfected cells
T1 sequence (P48547 1-585 isoform P48547-2): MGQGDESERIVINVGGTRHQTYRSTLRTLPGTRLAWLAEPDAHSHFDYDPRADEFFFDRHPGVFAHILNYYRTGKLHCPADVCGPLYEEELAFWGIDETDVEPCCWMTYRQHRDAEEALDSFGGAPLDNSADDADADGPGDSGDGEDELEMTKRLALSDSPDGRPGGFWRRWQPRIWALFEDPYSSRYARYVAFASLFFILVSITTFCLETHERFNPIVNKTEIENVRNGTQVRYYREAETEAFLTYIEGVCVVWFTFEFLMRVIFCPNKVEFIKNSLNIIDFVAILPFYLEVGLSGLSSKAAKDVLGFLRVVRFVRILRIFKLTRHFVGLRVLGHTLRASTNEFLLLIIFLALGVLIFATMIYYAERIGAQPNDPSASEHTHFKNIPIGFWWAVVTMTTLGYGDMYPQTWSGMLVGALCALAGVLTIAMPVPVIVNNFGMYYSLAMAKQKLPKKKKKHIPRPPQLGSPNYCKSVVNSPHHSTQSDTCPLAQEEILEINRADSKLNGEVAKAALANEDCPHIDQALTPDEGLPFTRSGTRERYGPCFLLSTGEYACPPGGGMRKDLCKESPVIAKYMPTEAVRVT
Experiment: Automated patch clamp (QPatch-16x) on HEK-293 cells stably expressing hKv3.1b
Type: cell-based
Conditions: for ECdelta5 mV: concentration needed to shift the activation threshold 5 mV; for Threshold Shift: maximum absolute hyperpolarizing shift of activation threshold at tested concentrations 0.37-30 μM
Procedure: HEK-293 cells stably expressing hKv3.1b were used for the experiments. Cells were cultured in DMEM medium supplemented with 10% Fetal Bovine Serum, 100 ug/mL Geneticidin and 100 u/mL Penicillin/Streptomycin (all from Gibco). Cells were grown to 80-90% confluency at 37° C. and 5% CO2. On the day of the experiment the cells were detached from the tissue culture flasks by Detachin, resuspended in serum free medium containing 25 mM HEPES and transferred to the cell hotel of the QPatch. The cells were used for experiments 0-5 hours after detachment.
Patch-clamp recordings were performed using the automated recording system QPatch-16x (Sophion Bioscience, Denmark). Cells were centrifuged, SFM removed and the cells were resuspended in extracellular buffer containing (in mM): 145 NaCl, 4 KCl, 1 MgCl2, 2 CaCl2, 10 HEPES and 10 glucose (added fresh on the day of experiment); pH 7.4 adjusted with NaOH, 305 mOsm adjusted with sucrose.
Single cell whole-cell recordings were carried out using an intracellular solution containing (in mM): 120 KCl, 32.25/10 KOH/EGTA, 5.374 CaCl2, 1.75 MgCl2, 10 HEPES, 4 Na2ATP (added fresh on the day), pH 7.2 adjusted with KOH, […] adjusted with sucrose. Cell membrane potentials were held at −80 mV and currents were evoked by voltage steps (200 ms duration) from −70 mV to +10 mV (in 10 mV increments). Vehicle (0.33% DMSO) or increasing concentration of compound (I) were applied and the voltage protocol was run 3 times (resulting in 3 min cpd incubation time). Five increasing concentrations of compound (I) were applied to each cell.
Leak subtraction protocol was applied at −33% of the sweep amplitude, and serial resistance values were constantly monitored.
Any cell where serial resistance exceeded 25 MOhm, membrane resistance less than 200 MOhm or current size at −10 mV less than 200 pA was eliminated from the subsequent analysis.
Data analysis was performed using Sophion's QPatch assay software in combination with Microsoft Excel™ (Redmond, Wash., USA). Current voltage relationships were plotted from the peak current at the individual voltage steps normalized to the vehicle addition at 10 mV. The voltage threshold for channel activation was defined as 5% activation of the peak current at 10 mV in presence of vehicle. The activity of the compounds was described as the ability to shift this current voltage relationship to more hyperpolarized potentials and is given as the maximum absolute shift possible at the tested concentrations (0.37, 1.11, 3.33, 10, 30 μM). Concentration response curves were plotted from the threshold shift at the individual concentrations and were fitted excel fit model 205 sigmoidal dose-response model (fit=A+((B−A)/1+((C/x)^D)))), where A is the minimum value, B the maximum value, C the EC50 value and D the slope of the curve. The concentration needed to shift the threshold 5 mV was readout from this curve (ECdelta5 mV).

| Structure (SMILES) | ECdelta5 mV | Threshold Shift |
| --- | --- | --- |
| Cc1noc(CNC(=O)c2ccn(S(=O)(=O)c3ccc(F)cc3)c2)n1 [Compound 65, 1-(4-fluorobenzene-1-sulfonyl)-N-[(3-methyl-1,2,4-oxadiazol-5-yl)methyl]-1H-pyrrole-3-carboxamide] | 4200 nM | 14 mV |
| COc1ccc(S(=O)(=O)n2ccc(C(=O)NCc3ccn(C)n3)c2)cc1 [Compound 66, 1-(4-methoxybenzene-1-sulfonyl)-N-[(1-methyl-1H-pyrazol-3-yl)methyl]-1H-pyrrole-3-carboxamide] | 1400 nM | 18 mV |
| COc1ccc(S(=O)(=O)n2ccc(C(=O)NCc3nc(C)no3)c2)cc1 [Compound 68, 1-(4-methoxybenzene-1-sulfonyl)-N-[(3-methyl-1,2,4-oxadiazol-5-yl)methyl]-1H-pyrrole-3-carboxamide] | 2300 nM | 21 mV |
| COc1ccc(S(=O)(=O)n2ccc(C(=O)NCc3cnn(C)c3)c2)cc1 [Compound 69, 1-(4-methoxybenzene-1-sulfonyl)-N-[(1-methyl-1H-pyrazol-4-yl)methyl]-1H-pyrrole-3-carboxamide] | 3000 nM | 18 mV |
| COc1ccc(S(=O)(=O)n2ccc(C(=O)NCc3cc(C)no3)c2)cc1 [Compound 71, 1-(4-methoxybenzene-1-sulfonyl)-N-[(3-methyl-1,2-oxazol-5-yl)methyl]-1H-pyrrole-3-carboxamide] | 1800 nM | 19 mV |
| COc1ccc(S(=O)(=O)n2ccc(C(=O)NCc3ncc(C)o3)c2)cc1 [Compound 73, 1-(4-methoxybenzene-1-sulfonyl)-N-[(5-methyl-1,3-oxazol-2-yl)methyl]-1H-pyrrole-3-carboxamide] | 2100 nM | 13 mV |
| Cc1noc(CNC(=O)c2ccn(S(=O)(=O)c3ccccc3C)c2)n1 [Compound 75, 1-(2-methylbenzene-1-sulfonyl)-N-[(3-methyl-1,2,4-oxadiazol-5-yl)methyl]-1H-pyrrole-3-carboxamide] | 3200 nM | 14 mV |
| Cc1ccccc1S(=O)(=O)n1ccc(C(=O)NCc2cnn(C)c2)c1 [Compound 76, 1-(2-methylbenzene-1-sulfonyl)-N-[(1-methyl-1H-pyrazol-4-yl)methyl]-1H-pyrrole-3-carboxamide] | 3600 nM | 17 mV |
| Cc1cc(CNC(=O)c2ccn(S(=O)(=O)c3ccccc3C)c2)on1 [Compound 78, 1-(2-methylbenzene-1-sulfonyl)-N-[(3-methyl-1,2-oxazol-5-yl)methyl]-1H-pyrrole-3-carboxamide] | 1900 nM | 17 mV |
| Cc1ccc(S(=O)(=O)n2cc(C(=O)NCc3cnc(C)cn3)cc2F)cc1 [Compound 87, 5-fluoro-1-(4-methylbenzene-1-sulfonyl)-N-[(5-methylpyrazin-2-yl)methyl]-1H-pyrrole-3-carboxamide] | 4000 nM | 15 mV |
| Cc1ccc(S(=O)(=O)n2ccc(C(=O)NCc3cnc(C)cn3)c2F)cc1 [Compound 88, 2-fluoro-1-(4-methylbenzene-1-sulfonyl)-N-[(5-methylpyrazin-2-yl)methyl]-1H-pyrrole-3-carboxamide] | 2000 nM | 23 mV |

The remaining lines, values ahead:

| ECdelta5 mV | Threshold Shift | Structure (SMILES) |
| --- | --- | --- |
| 4900 nM | 12 mV | Cc1cnc(CNC(=O)c2ccn(S(=O)(=O)c3cccc(C)c3)c2)nc1 [Compound 62, 1-(3-methylbenzene-1-sulfonyl)-N-[(5-methylpyrimidin-2-yl)methyl]-1H-pyrrole-3-carboxamide] |
| 2200 nM | 13 mV | Cn1ccc(CNC(=O)c2ccn(S(=O)(=O)c3ccc(F)cc3)c2)n1 [Compound 63, 1-(4-fluorobenzene-1-sulfonyl)-N-[(1-methyl-1H-pyrazol-3-yl)methyl]-1H-pyrrole-3-carboxamide] |
| 4400 nM | 13 mV | O=C(NCc1cnccn1)c1ccn(S(=O)(=O)c2ccc(F)cc2)c1 [Compound 64, 1-(4-fluorobenzene-1-sulfonyl)-N-[(pyrazin-2-yl)methyl]-1H-pyrrole-3-carboxamide] |
| 2200 nM | 23 mV | COc1ccc(S(=O)(=O)n2ccc(C(=O)NCc3cnccn3)c2)cc1 [Compound 67, 1-(4-methoxybenzene-1-sulfonyl)-N-[(pyrazin-2-yl)methyl]-1H-pyrrole-3-carboxamide] |
| 1100 nM | 17 mV | COc1ccc(S(=O)(=O)n2ccc(C(=O)NCc3ccc(C)cn3)c2)cc1 [Compound 70, 1-(4-methoxybenzene-1-sulfonyl)-N-[(5-methylpyridin-2-yl)methyl]-1H-pyrrole-3-carboxamide] |
| 2800 nM | 20 mV | COc1ccc(S(=O)(=O)n2ccc(C(=O)NCc3ncc(C)cn3)c2)cc1 [Compound 72, 1-(4-methoxybenzene-1-sulfonyl)-N-[(5-methylpyrimidin-2-yl)methyl]-1H-pyrrole-3-carboxamide] |
| 2100 nM | 21 mV | Cc1ccccc1S(=O)(=O)n1ccc(C(=O)NCc2ccn(C)n2)c1 [Compound 74, 1-(2-methylbenzene-1-sulfonyl)-N-[(1-methyl-1H-pyrazol-3-yl)methyl]-1H-pyrrole-3-carboxamide] |
| 3300 nM | 12 mV | Cc1ccc(CNC(=O)c2ccn(S(=O)(=O)c3ccccc3C)c2)nc1 [Compound 77, 1-(2-methylbenzene-1-sulfonyl)-N-[(5-methylpyridin-2-yl)methyl]-1H-pyrrole-3-carboxamide] |
| 2800 nM | 12 mV | Cc1cnc(CNC(=O)c2ccn(S(=O)(=O)c3ccccc3C)c2)o1 [Compound 80, 1-(2-methylbenzene-1-sulfonyl)-N-[(5-methyl-1,3-oxazol-2-yl)methyl]-1H-pyrrole-3-carboxamide] |
| 1000 nM | 28 mV | O=C(NCc1cnccn1)c1ccn(S(=O)(=O)c2ccc(Cl)cc2)c1 [Compound 81, 1-(4-chlorobenzene-1-sulfonyl)-N-[(pyrazin-2-yl)methyl]-1H-pyrrole-3-carboxamide] |
| 4100 nM | 14 mV | Cn1ccc(CNC(=O)c2ccn(S(=O)(=O)c3ccccc3)c2)n1 [Compound 82, 1-(benzenesulfonyl)-N-[(1-methyl-1H-pyrazol-3-yl)methyl]-1H-pyrrole-3-carboxamide] |
| 5000 nM | 13 mV | Cc1ccc(CNC(=O)c2ccn(S(=O)(=O)c3ccccc3)c2)nc1 [Compound 83, 1-(benzenesulfonyl)-N-[(5-methylpyridin-2-yl)methyl]-1H-pyrrole-3-carboxamide] |
| 4600 nM | 12 mV | Cc1cc(CNC(=O)c2ccn(S(=O)(=O)c3ccccc3)c2)on1 [Compound 84, 1-(benzenesulfonyl)-N-[(3-methyl-1,2-oxazol-5-yl)methyl]-1H-pyrrole-3-carboxamide] |
| 3100 nM | 18 mV | Cc1ccc(CNC(=O)c2ccn(S(=O)(=O)c3ccc(F)cc3)c2)cn1 [Compound 85, 1-(4-fluorobenzene-1-sulfonyl)-N-[(6-methylpyridin-3-yl)methyl]-1H-pyrrole-3-carboxamide] |
